Experimental data as given in patent US11254640B2, “N-substituted indoles and other heterocycles for treating brain disorders” (The Regents of the University of California, priority 2019, dated 2022).
Like-named read-outs stand apart in the source and are kept apart here.

Legend:
Assay type in all cases: cell-based
[1] = test system: 5HT2A sensor; assay: 5HT2A sensor assay, antagonist mode (sLight1.3s HEK293T stable line); settings: relative to 5-HT at 100 nM; for 5HT2A Antagonist mean @ 100 nM (%): 100 nM compound; for 5HT2A Antagonist mean @ 10 μM (%): 10 μM compound; for 5HT2A Antagonist mean @ 100 μM (%): 100 μM compound
Method in brief: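 Inactivation score is computed from membrane dFF as (dFF(compound+5HT)−dFF(5HT))/dFF(5HT), with HBSS-only fluorescence as Fapo. Final concentrations: 5-HT 100 nM added first, then compound at 100 nM, 10 μM or 100 μM in 0.1% DMSO. Triplicates; FITC imaging, 5 fields per well.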

[2] = target: T1, 5HT2A (Homo sapiens, UniProt P28223); assay: Calcium flux assay (Calcium secondary messenger pathway); settings: agonist mode
T1 construct: expressed in transfected cells
T1 sequence (P28223 whole entry): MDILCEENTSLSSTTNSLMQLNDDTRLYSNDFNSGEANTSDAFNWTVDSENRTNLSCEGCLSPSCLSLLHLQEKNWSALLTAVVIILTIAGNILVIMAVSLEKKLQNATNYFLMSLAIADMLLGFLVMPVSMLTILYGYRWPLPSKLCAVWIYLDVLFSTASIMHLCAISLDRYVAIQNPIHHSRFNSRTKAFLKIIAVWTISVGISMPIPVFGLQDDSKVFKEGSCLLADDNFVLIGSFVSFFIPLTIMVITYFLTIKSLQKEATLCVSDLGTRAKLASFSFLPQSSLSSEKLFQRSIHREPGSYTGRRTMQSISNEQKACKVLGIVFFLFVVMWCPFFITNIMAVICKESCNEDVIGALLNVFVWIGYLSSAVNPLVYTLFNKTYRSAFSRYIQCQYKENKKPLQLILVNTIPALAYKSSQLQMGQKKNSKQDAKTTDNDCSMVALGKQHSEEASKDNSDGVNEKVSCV
Text: Calcium Flux Assay. Calcium Secondary Messenger Pathway. The Calcium No Wash^PLUS assay monitors the activation of a GPCR (e.g., 5HT2A) via Gq secondary messenger signaling in a live cell, non-imaging assay format. Calcium mobilization in PathHunter® cell lines or other cell lines stably expressing Gq-coupled GPCRs (e.g., 5HT2A) is monitored using a calcium-sensitive dye that is loaded into cells. GPCR (e.g., 5HT2A) activation by a compound results in the release of calcium from intracellular stores and an increase in dye fluorescence that is measured in real-time. In some embodiments, the ability of a compound of the present invention to modulate 5-HT2A function is determined using a calcium flux assay. In some embodiments, a compound of the present invention activates a calcium flux assay.
Calcium Secondary Messenger Pathway. Cell lines were expanded from freezer stocks according to standard procedures. Cells were seeded in a total volume of 20 μL into black-walled, clear-bottom, Poly-D-lysine coated 384-well microplates and incubated at 37° C. for the appropriate time prior to testing. Assays were performed in 1× Dye Loading Buffer consisting of 1× Dye, 1× Additive A and 2.5 mM Probenecid in HBSS/20 mM Hepes. Probenicid was prepared fresh. Cells were loaded with dye prior to testing. Media was aspirated from cells and replaced with 20 μL Dye Loading Buffer. Cells were incubated for 30-60 minutes at 37° C.
For agonist determination, cells were incubated with sample to induce response. After dye loading, cells were removed from the incubator and 10 μL HBSS/20 mM Hepes was added. 3× vehicle was included in the buffer when performing agonist dose curves to define the EC80 for subsequent antagonist assays. Cells were incubated for 30 minutes at room temperature in the dark to equilibrate plate temperature. Intermediate dilution of sample stocks was performed to generate 4× sample in assay buffer. Compound agonist activity was measured on a FLIPR Tetra (MDS). Calcium mobilization was monitored for 2 minutes and 10 μL 4× sample in HBSS/20 mM Hepes was added to the cells 5 seconds into the assay.
Compound activity was analyzed using CBIS data analysis suite (ChemInnovation, CA). For agonist mode assays, percentage activity is calculated using the following formula: % Activity=100%×(mean RFU of test sample−mean RFU of vehicle control)/(mean MAX RFU control ligand−mean RFU of vehicle control).

[3] = test system: rat cortical neurons; assay: Neurite outgrowth assay; settings: Cortical neurone, 1 hour treatment at DIV 4, analysed DIV 7, fold vs DMSO control
Text: Neurite outgrowth assay. Changes in the pattern of neurite outgrowth have been implicated in neurodegenerative disorders as well as traumatic injuries. The discovery of new compounds that can positively affect neuritogenesis are important for developing new therapeutics for neurological diseases. Measurement of neurite outgrowth of rat cortical neurons using an automated image-based assay was used to determine the neuroplastic effects of the compounds of the present invention. In some embodiments, a compound of the present invention increases the pattern of neurite outgrowth. In some embodiments, a compound of the present invention increases neurite average length compared to a control. In some embodiments, a compound of the present invention increases neurite branch points compared to a control. In some embodiments, a compound of the present invention increases neurite average length and neurite branch points compared to a control.
Neurite Outgrowth Assay. Rat cortical neurons (20,000 cells/well) were freshly isolated from embryonic day 18 rats and cultured in Neurobasal Medium (+B27). The cultured cells were plated in 96 well-plates (avoiding external wells). At DIV 4, the neurons were treated with compound or control (10 μM) for 1 hour followed by complete washout of the compound. At DIV 7, the neurons were analyzed. The experiments were performed in triplicate. Neurite outgrowth was measured analyzing the following parameters: Number of Cell Bodies, total neurite length (pixels), Root Count, Segments, Extremities Count and node points. Changes in the pattern of neurite outgrowth of the neurons were analyzed by immunocytochemistry against β-III-tubulin. Pictures were acquired by the CellInsight CX7 from Thermo Fisher and analyzed using its software. Results generated in the equipment were maximum neurite length, extremity count, root count, dendrite branch points, and total neurite length. The results were compared to DMSO control, representing the fold-change in neuronal outgrowth.

[4] = test system: 5HT2A sensor; assay: 5HT2A sensor assay, agonist mode (sLight1.3s HEK293T stable line); settings: percent relative to 5-HT at 100 uM; for 5HT2A Agonist mean @ 100 nM (%): 100 nM compound; for 5HT2A Agonist mean @ 10 μM (%): 10 μM compound; for 5HT2A Agonist mean @ 100 μM (%): 100 μM compound
Method in brief: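 Agonist mode in HEK293T cells stably expressing the sLight1.3 5HT2A sensor, washed into HBSS; compounds at final 100 μM, 10 μM and 100 nM (0.1% DMSO), triplicate wells. Membrane fluorescence (ex 460, em 512-542 nm) imaged before and after addition; dFF=(Fsat−Fapo)/Fapo, expressed as percent activation (DMSO=0, 5HT=100).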

[5] = read-out: Neurite Average Length @ 10 μM
[6] = read-out: Neurite Branch Points: @ 10 μM

`FC(F)(F)Oc1ccc2c(ccn2CCN2CCCCC2)c1` [Example 51, 1-(2-(piperidin-1-yl)ethyl)-5-(trifluoromethoxy)-1H-indole] was tested, and the “5HT2A Antagonist mean @ 100 nM (%)” value [1] was “A (inhibits 5HT response by >100%)”, the “5HT2A Antagonist mean @ 10 μM (%)” value [1] was “A (inhibits 5HT response by >100%)” and the “5HT2A Antagonist mean @ 100 μM (%)” value [1] was “A (inhibits 5HT response by >100%)”. It also gave an EC50 [2] of over 10 µM, a fold induction at 10 µM [3, 5] of 1.5 to 3 and a fold induction at 10 µM [3, 6] of 1.5 to 3. The “5HT2A Agonist mean @ 100 nM (%)” value [4] was “B (does not activate 5HT2A sensor assay in agonist mode)”, the “5HT2A Agonist mean @ 10 μM (%)” value [4] was “B (does not activate 5HT2A sensor assay in agonist mode)” and the “5HT2A Agonist mean @ 100 μM (%)” value [4] was “B (does not activate 5HT2A sensor assay in agonist mode)”.

For `FC(F)(F)Oc1ccc2c(ccn2CCN2CCOCC2)c1` [Example 52, 4-(2-(5-(trifluoromethoxy)-1H-indol-1-yl)ethyl)morpholine], the “5HT2A Antagonist mean @ 100 nM (%)” value [1] was “A (inhibits 5HT response by >100%)”, the “5HT2A Antagonist mean @ 10 μM (%)” value [1] was “B (inhibits 5HT response by 75% to 100%)” and the “5HT2A Antagonist mean @ 100 μM (%)” value [1] was “B (inhibits 5HT response by 75% to 100%)”. For the same molecule, the EC50 [2] was over 10 µM, the fold induction at 10 µM [3, 5] was 1.5 to 3 and the fold induction at 10 µM [3, 6] was 1.5 to 3. The “5HT2A Agonist mean @ 100 nM (%)” value [4] was “B (does not activate 5HT2A sensor assay in agonist mode)”, the “5HT2A Agonist mean @ 10 μM (%)” value [4] was “B (does not activate 5HT2A sensor assay in agonist mode)” and the “5HT2A Agonist mean @ 100 μM (%)” value [4] was “A (activates 5HT2A sensor assay in agonist mode)”.

In the case of `CN(C)CCn1cnc2ccccc21` [Example 57, 2-(1H-benzo[d]imidazol-1-yl)-N,N-dimethylethan-1-amine], the “5HT2A Antagonist mean @ 100 nM (%)” value [1] is reported as “B (inhibits 5HT response by 75% to 100%)”, the “5HT2A Antagonist mean @ 10 μM (%)” value [1] is reported as “A (inhibits 5HT response by >100%)” and the “5HT2A Antagonist mean @ 100 μM (%)” value [1] is reported as “A (inhibits 5HT response by >100%)”. For the same molecule, the EC50 [2] was over 10 µM, the fold induction at 10 µM [3, 5] was 1.5 to 3 and the fold induction at 10 µM [3, 6] was 1.5 to 3. For the same molecule, the “5HT2A Agonist mean @ 100 nM (%)” value [4] was “B (does not activate 5HT2A sensor assay in agonist mode)”, the “5HT2A Agonist mean @ 10 μM (%)” value [4] was “B (does not activate 5HT2A sensor assay in agonist mode)” and the “5HT2A Agonist mean @ 100 μM (%)” value [4] was “B (does not activate 5HT2A sensor assay in agonist mode)”.

In the case of `Cc1nc2ccccc2n1CCN(C)C` [Example 58, N,N-dimethyl-2-(2-methyl-1H-benzo[d]imidazol-1-yl)ethan-1-amine], the “5HT2A Antagonist mean @ 100 nM (%)” value [1] is reported as “A (inhibits 5HT response by >100%)”, the “5HT2A Antagonist mean @ 10 μM (%)” value [1] is reported as “A (inhibits 5HT response by >100%)” and the “5HT2A Antagonist mean @ 100 μM (%)” value [1] is reported as “A (inhibits 5HT response by >100%)”. It also gave an EC50 [2] of over 10 µM, a fold induction at 10 µM [3, 5] of 1.5 to 3 and a fold induction at 10 µM [3, 6] of 1.5 to 3. The “5HT2A Agonist mean @ 100 nM (%)” value [4] was “B (does not activate 5HT2A sensor assay in agonist mode)”, the “5HT2A Agonist mean @ 10 μM (%)” value [4] was “B (does not activate 5HT2A sensor assay in agonist mode)” and the “5HT2A Agonist mean @ 100 μM (%)” value [4] was “A (activates 5HT2A sensor assay in agonist mode)”.

With `COc1cc2ccn(C[C@@H](C)N(C)C)c2cc1F` [Example 61, (R)-1-(6-fluoro-5-methoxy-1H-indol-1-yl)-N,N-dimethylpropan-2-amine] the “5HT2A Antagonist mean @ 100 nM (%)” value [1] was “A (inhibits 5HT response by >100%)”, the “5HT2A Antagonist mean @ 10 μM (%)” value [1] was “A (inhibits 5HT response by >100%)” and the “5HT2A Antagonist mean @ 100 μM (%)” value [1] was “A (inhibits 5HT response by >100%)”. It also gave an EC50 [2] of over 10 µM, a fold induction at 10 µM [3, 5] of 1.5 to 3 and a fold induction at 10 µM [3, 6] of 1.5 to 3. For the same molecule, the “5HT2A Agonist mean @ 100 nM (%)” value [4] was “B (does not activate 5HT2A sensor assay in agonist mode)”, the “5HT2A Agonist mean @ 10 μM (%)” value [4] was “B (does not activate 5HT2A sensor assay in agonist mode)” and the “5HT2A Agonist mean @ 100 μM (%)” value [4] was “B (does not activate 5HT2A sensor assay in agonist mode)”.

`COc1cc2ccn(C[C@@H](C)N(C)C)c2cc1OC` [Example 62, (R)-1-(5,6-dimethoxy-1H-indol-1-yl)-N,N-dimethylpropan-2-amine] was tested, and the “5HT2A Antagonist mean @ 100 nM (%)” value [1] was “B (inhibits 5HT response by 75% to 100%)”, the “5HT2A Antagonist mean @ 10 μM (%)” value [1] was “B (inhibits 5HT response by 75% to 100%)” and the “5HT2A Antagonist mean @ 100 μM (%)” value [1] was “A (inhibits 5HT response by >100%)”. The EC50 [2] was over 10 µM, the fold induction at 10 µM [3, 5] was 1.5 to 3 and the fold induction at 10 µM [3, 6] was 1.5 to 3. For the same molecule, the “5HT2A Agonist mean @ 100 nM (%)” value [4] was “B (does not activate 5HT2A sensor assay in agonist mode)”, the “5HT2A Agonist mean @ 10 μM (%)” value [4] was “B (does not activate 5HT2A sensor assay in agonist mode)” and the “5HT2A Agonist mean @ 100 μM (%)” value [4] was “A (activates 5HT2A sensor assay in agonist mode)”.

For `COc1cc(OC)c2c(ccn2C[C@@H](C)N(C)C)c1` [Example 63, (R)-1-(5,7-dimethoxy-1H-indol-1-yl)-N,N-dimethylpropan-2-amine], the “5HT2A Antagonist mean @ 100 nM (%)” value [1] was “B (inhibits 5HT response by 75% to 100%)”, the “5HT2A Antagonist mean @ 10 μM (%)” value [1] was “B (inhibits 5HT response by 75% to 100%)” and the “5HT2A Antagonist mean @ 100 μM (%)” value [1] was “A (inhibits 5HT response by >100%)”. It also gave an EC50 [2] of over 10 µM, a fold induction at 10 µM [3, 5] of 1.5 to 3 and a fold induction at 10 µM [3, 6] of 1.5 to 3. For the same molecule, the “5HT2A Agonist mean @ 100 nM (%)” value [4] was “B (does not activate 5HT2A sensor assay in agonist mode)”, the “5HT2A Agonist mean @ 10 μM (%)” value [4] was “B (does not activate 5HT2A sensor assay in agonist mode)” and the “5HT2A Agonist mean @ 100 μM (%)” value [4] was “B (does not activate 5HT2A sensor assay in agonist mode)”.

With `COc1cc(C)c2c(ccn2C[C@@H](C)N(C)C)c1` [Example 65, (R)-1-(5-methoxy-7-methyl-1H-indol-1-yl)-N,N-dimethylpropan-2-amine] the “5HT2A Antagonist mean @ 100 nM (%)” value [1] was “C (inhibits 5HT response by <75%)”, the “5HT2A Antagonist mean @ 10 μM (%)” value [1] was “A (inhibits 5HT response by >100%)” and the “5HT2A Antagonist mean @ 100 μM (%)” value [1] was “A (inhibits 5HT response by >100%)”. The EC50 [2] was over 10 µM, the fold induction at 10 µM [3, 5] was 1.5 to 3 and the fold induction at 10 µM [3, 6] was 1.5 to 3. For the same molecule, the “5HT2A Agonist mean @ 100 nM (%)” value [4] was “B (does not activate 5HT2A sensor assay in agonist mode)”, the “5HT2A Agonist mean @ 10 μM (%)” value [4] was “B (does not activate 5HT2A sensor assay in agonist mode)” and the “5HT2A Agonist mean @ 100 μM (%)” value [4] was “B (does not activate 5HT2A sensor assay in agonist mode)”.
